From patent US11110182B2, “Multifunctional RNA nanoparticles and methods for treating cancer and therapeutic resistant cancer” (University of Cincinnati, priority 2016, dated 2021) come the findings set out here.

One data set deals with MED1. Description: MED1 protein level by western blotting in BT474 cells. It counts as cell-based, human. The conditions noted are these: BT474, 48 h. On the procedure: FIG. 3A) BT474 cells were incubated with 10 μg/mL control and pRNA-HER2apt-siMED1 nanoparticles for 48 h, and MED1 mRNA level was determined by real-time PCR. FIG. 3B) BT474 cells were incubated directly with (as indicated by -) or transfected with indicated pRNAs using lipofectamine 2000. At 48 h post treatment, MED1 protein levels were determined by western blotting. FIG. 3C) BT474 cells were treated with 10 μg/mL pRNA nanoparticles for 48 h and assayed for cell viability by MTT assay. FIG. 3D) Cells were treated as above and seeded for migration, and FIG. 3E) invasion transwell assays. Scale bar: 50 μm. FIG. 3F) After pRNA treatment for 48 h, the mRNA levels of ERα target genes TFF-1, FIG. 3G) c-Myc, and FIG. 3H) cyclin D1 in BT474 cells were determined by real-time PCR.
FIG. 7A) Six HER2-targeting RNA aptamers were selected from previous literatures, and their secondary structures were predicted using Srna-fold software. FIG. 7B) Six p2 strands containing the six different HER2 RNA aptamers were synthesized and annealed with the same p1 strand to generate six different pRNA-HER2apt-MED1 siRNA nanoparticles, respectively, followed by examination using 8% native PAGE gel electrophoresis. FIG. 7C) BT474 cells were treated with above pRNA nanoparticles for 48 h, and then MED1 protein level was determined by western blotting. […] FIG. 7D) 1 μg pRNA nanoparticles were incubated with recombinant Dicer enzyme (Genlantis) at 37° C. for 12 h, the product was separated by 8% native PAGE gel.
FIG. 9A) BT474 cells were treated with different concentrations of pRNA nanoparticles as indicated for 48 h. After that, MED1 protein level was determined by western blots, and FIG. 9B) the cell viability was determined by MTT assay.
Cell culture. Human breast cancer luciferase-overexpressing BT474 and MDA-MB-231 cells were maintained in DMEM medium (Hyclone, Thermo Scientific) supplemented with 10% fetal bovine serum (FBS, Sigma) and 1% penicillin/streptomycin (Corning) at 37° C. in a humidified atmosphere with 5% CO2.^53 • Generation of pRNA nanoparticles. The two strands of pRNA were synthesized with the DNA templates, which were amplified with overlapping primers (Sigma) by PCR methods, using a T7 promoter-controlled in vitro RNA transcription system as previously described^33 (Table 1). All the CTP and UTP used for synthesis of the pRNA nanoparticles were 2′-fluoro modified, except the control unmodified pRNA nanoparticles used in the stability assays. Following an overnight transcription at 37° C., RNA strands were purified using RNA clean and concentrator kits (ZYMO research) and examined by 8 M urea denatured 8% PAGE gel. pRNA nanoparticles were assembled by mixing the equal molar amounts of p1 and p2 strands and gradually annealing from 90° C. to 20° C. in 1×RNA annealing buffer containing 50 mM Tris-HCl (pH 7.5), 50 mM NaCl and 1 mM EDTA on a PCR machine. […] The hydrodynamic diameter and Tm value of pRNA nanoparticles were determined using dynamic light scattering and TGGE assay, respectively, as previously described.^54 The AFM imaging of the pRNA nanoparticles was performed at the University of Nebraska Medical Center imaging facility as previously reported.^55 Briefly, the pRNA nanoparticles (5 μL) were deposited on APS modified mica ^56 for a total of 2 min of incubation time. […]
In general terms: Immunoblotting shows a protein as a band on a membrane.

Data set [1] concerns BT474 orthotopic xenograft tumors. In words: Anti-tumor therapy in BT474 orthotopic xenograft breast tumor mouse model. The conditions noted are these: single agent; for tumor lung metastasis: H&E staining of whole lung. The class given is in vivo, athymic nude mice. On the procedure: FIG. 5A) BT474 orthotopic xenograft mouse models were treated with control pRNA-HER2apt-siScram or pRNA-HER2apt-siMED1 (4 mg/Kg) once a week, in combination with vehicle or tamoxifen (TAM, 0.5 mg/mice/day) 5 days per week. Tumor sizes were measured every three days. FIG. 5B) After three weeks, mice were i.p. injected with D-luciferin, and representative in vivo images of BT474 tumors were recorded using IVIS Lumina imaging system. FIG. 5C) Average weight of the tumors excised at the end of the treatment, and FIG. 5D) the representative photos of tumors. FIG. 5E and FIG. 5F) MED1 expression in the BT474 tumors was examined using IHC staining and FIG. 5G) immunoblotting. FIG. 5H) The expression of Ki-67 in tumor tissues was analyzed using IHC staining, and FIG. 5I) the percentage of Ki-67 positive cells was counted. Scale bar: 100 μm.
FIG. 6A) Whole lung tissues were fixed, embedded, and sectioned for H&E staining, and FIG. 6B) metastasis foci in the whole lung tissues were then counted. Arrow indicates the metastasis foci. Scale bar: 100 μm. FIG. 6C) After digesting tumor tissues with trypsin and 0.1% collagenase, tumor cells were stained for CD44 and CD24, and FIG. 6D) analyzed for CD44^+CD24^−/low stem cell population using flow cytometry. FIG. 6E) Total RNA in the tumor tissues was extracted using TRIZOL reagent, and the expression of TFF-1, FIG. 6F) c-Myc, FIG. 6G) cyclin D1, and FIG. 6H) MMP-9 were determined by real-time PCR.
Migration and metastasis assay. The 8-μm-pore-size polycarbonate membrane, which separates the two chambers of a 6.5-mm Transwell (Costar), was coated with or without 1:8 DMEM-diluted Matrigel (Corning). Transwell assay was performed as previously described.^57 Briefly, BT474 cells were treated with pRNAs alone or together with 4-hydroxy-tamoxifen (4-OHT) for 48 h and starved with serum-free DMEM containing 0.2% BSA overnight. On the next day, cells were collected and 2×10^5 cells were seeded to the upper chamber of Transwell. The lower chamber was filled with 600 μL DMEM medium containing 10% FBS. After incubation at 37° C. for 24 h, cells on the membranes were fixed and stained with 0.1% crystal violet in 20% ethanol solution. Cells at top side of membranes were removed completely, and cells at the bottom side were examined with an Olympus SZX12 microscope and counted. • Mammosphere culture and breast cancer stem cell analyses. BT474 cells were treated with pRNAs for 48 h. Then, cells were suspended in DMEM/F12 medium supplemented with 1×B27 (Thermo Fisher), 20 ng/mL bFGF and 20 ng/mL EGF (R&D), and added into 24-well ultralow attachment plates. After treatment with or without 1 μM 4-OHT for 7 days, mammosphere formation was recorded using an Axiovert S100 TV inverted microscope (Zeiss). Xenograft tumor tissues were cut into small pieces and digested with trypsin and collagenase at 37° C. for 1 h, and tumor cells were collected and rinsed with pre-cold PBS. All cells were stained with FITC-conjugated anti-CD44 antibody and PE-conjugated anti-CD24 antibody (BD Pharmingen) in the dark on ice for 30 min. After resuspension with 0.5 mL PBS buffer, CD44^+/CD24^−/low cell population was analyzed by flow cytometry. • Orthotopic xenograft breast tumor mouse model, in vivo imaging and anti-tumor therapy. Six-week-old female athymic nude mice were purchased from Charles River Laboratories, and all animal procedures were performed under IACUC-approved protocols at the University of Cincinnati. Athymic nude mice were orthotopically injected with 1×10^7 BT474-luc cells mixed with matrigel into the fat pads of the forth pair of mammary glands. When the tumor sizes reached 100-150 mm^3, the mice were randomly divided into four groups (4/group) and intravenously (i.v.) injected with pRNAs (4 mg/Kg) once a week for three weeks. For tamoxifen treatments, 0.5 mg tamoxifen (Sigma) dissolved in sesame oil was intraperitoneally (i.p.) injected into mice 5 days a week for three weeks. […]

Strand notation (5' to 3'): a small letter for the sugar, then the base; units joined by * are phosphorothioate-linked, units joined directly phosphodiester-linked; [ ] holds rarer units or linkages, { } end groups; capitals alone tell only the bases. r = 2'-OH (RNA); f = 2'-fluoro

As for “B3 aptamer: HER2-targeting RNA aptamer B3 (SEQ ID NO: 9), tested within pRNA-HER2apt-MED1 siRNA nanoparticles (rGrGrGrArGrGrAfCrGrAfUrGfCrGrGfUfCfUrGfCfUrGfUrGfCfUfUrGrAfUrAfUrGfCfCfCfCrArGrAfCrGrAfCfUfCrGfCfCfC; part of pRNA three-way junction nanoparticle with siRNA)”, the “efficiency of MED1 knockdown among six HER2 RNA aptamers in pRNA nanoparticles” value in the data set on MED1 is given as “highest efficiency”. For `CC/C(=C(\c1ccccc1)c1ccc(OCCN(C)C)cc1)c1ccccc1` [tamoxifen, reference compound], the tumor lung metastasis result in data set [1] is “multiple tumor lung metastasis foci”. The tumor growth result in data set [1] (pRNA 4 mg/Kg i.v. once a week or tamoxifen 0.5 mg i.p. 5 days a week, three weeks) is reported as “only weakly inhibited”.

B1: pRNA-HER2apt-siScram: control pRNA nanoparticle with HER2 aptamer and scramble siRNA; strands p1 SEQ ID NO: 1, p2 SEQ ID NO: 2 (nucleic acid)
chain 1: GGAUCACGCUUCAUAUACAAAGGAUCAAUCAUGGCCAAUCUUAUUUCGCCCAUGACCUU
chain 2: GGUCAUGGGCGAAAUAAGAAAGGCCAUGUGUAUGUGGGGGGAGGACGAUGCGGUCUGCUGUGCUUGAUAUGCCCCAGACGACUCGCCCCCCACAUACUUUGUUGAUCCAAUGUAUAUGAAGCGUGAUCCUU
modifications: pRNA-HER2apt-siScram, p1; pRNA-HER2apt-siScram, p2
As to B1, the tumor lung metastasis entry in data set [1] is reported as “multiple tumor lung metastasis foci”.
